# Values joined by “and” are separate entries in the source; they are usually repeats but may differ in a detail not shown here. Equal entries are not always repeated. Where two headings read alike, the source gives them in different places.
# How the values were obtained:
# [1] = format: in vivo; details: after oral administration of Compound II-6 to rat under non-fasting conditions
# Source text: FIG. 1 is a result of measuring the plasma concentration of Compound III-2, after oral administration of prodrug Compound II-6, the parent compound of which is Compound III-2, to rat under non-fasting conditions.
# FIG. 2 is a result of measuring the plasma concentration of Compound II-6, after oral administration of prodrug Compound II-6, the parent compound of which is Compound III-2, to rat under non-fasting conditions.
# Test Example 13: Transition of Plasma Concentration
# The plasma concentration of Compound III-2 and Compound II-6 after oral administration of prodrug Compound II-6, the parent compound of which was Compound III-2, to rat under non-fasting conditions was measured.
# [2] = system: influenza virus; format: in vivo, human
# [3] = format: in vivo, human; details: Compound II-6 single 40 or 80 mg; Oseltamivir 75 mg twice a day for 5 days
# Source text: (4) Incidence of side effects
# (4) Incidence of Side Effects
# The number of side-effect episodes and the number of patients with side effect were counted for each administration group.
# [4] = system: influenza virus; assay: Clinical test (Test Example 15): time to alleviation of influenza symptoms; details: for Time to alleviation of influenza symptoms, difference from placebo / Time to alleviation of influenza symptoms, hazard ratio (Cox proportional hazard model relative to placebo) / Time to alleviation of influenza symptoms, median value: ITTI; for Time to alleviation of influenza symptoms, median value: influenza patients 20 to <65 years old; for Time until cough symptom is alleviated, median value / Time until fatigue symptom is alleviated, median value / Time until feverishness or chills symptom is alleviated, median value / Time until headache symptom is alleviated, median value / Time until muscular or joint pain symptom is alleviated, median value / Time until nasal congestion symptom is alleviated, median value / Time until sore throat symptom is alleviated, median value: patients with symptom moderate or severe at baseline
# Source text: Test Example 15: Clinical Test
# As for the primary endpoint, subjects made evaluations by themselves on a 4-point scale [0: none, 1: mild, 2: moderate, 3: severe] concerning the time to alleviation of influenza symptoms (the time from the beginning of administration of the investigational drug until 7 influenza symptoms (“cough”, “sore throat”, “headache”, “nasal congestion”, “feverishness or chills”, “muscular or joint pain”, and “fatigue”) were alleviated) to evaluate the efficacy of the investigational drug over the placebo.
# Patients who satisfied all of the following criteria were selected as subjects.
# (a) Male or female patients at 20 years old or older and younger than 65 years old
# (b) Patients satisfying all of the following criteria and diagnosed with influenza virus infectious disease
# The main efficacy endpoint is the time to alleviation of influenza symptoms (the time to alleviation of influenza symptoms).
# It is the time from the beginning of administration until alleviation of influenza symptoms. Alleviation of influenza symptoms refers to when all 7 influenza symptoms (cough, sore throat, headache, nasal congestion, feverishness or chills, muscular or joint pain, fatigue) become “0: none” or “1: mild” in the patient diary that the subject keeps, and this condition continues at least 21.5 hours (24 hours—10%).
# Secondary Efficacy Endpoint
# The secondary efficacy endpoint is as follows.
# (1) Time to Alleviation of Each Influenza Symptom
# It is the time from the beginning of administration until alleviation of each influenza symptom. Alleviation of a symptom refers to when the target item becomes “0: none” or “1: mild”, and this condition continues at least 21.5 hours (24 hours—10%).
# Analysis of Primary Endpoint
# As for the time to alleviation of influenza symptoms, which is the primary endpoint, the primary analysis and the secondary analysis are described. In addition to the ITTI group, the primary analysis was also performed on the PPS group for sensitivity analysis. Other analyses were performed only on the ITTI group.
# The hazard ratio, 95% confidence interval, and P value of each administered group relative to the placebo group were calculated by a Cox proportional hazard model using the time to alleviation of influenza symptoms as a response, the administered groups as fixed effects, and the current smoking habit and the total score of 7 influenza symptoms at baseline before administration, which are allocation factors, as covariates. In order to prevent an increase of the probability of type I error due to performing the test multiple times, the P value was adjuste d by the Hommel's method.
# The placebo group and each investigational drug administered group were compared by stratified generalized Wilcoxon test using the time to alleviation of influenza symptoms as a response, the administered groups as explanatory variables, and the category (11 points or less, 12 points or more) of the total score of 7 influenza symptoms before administration and the smoking habit, which are allocation factors, as stratification factors.
# Also, a Kaplan-Meier survival curve was drawn for each group to calculate the median time to alleviation of influenza symptoms and the 95% confidence interval thereof. The Greenwood's method was used for calculating the confidence interval.
# Analysis of Secondary Endpoint
# (1) Time Until Each Alleviation of Influenza Symptom
# The same analysis as in the primary endpoint was performed, with the time until each alleviation of influenza symptom being regarded as a response. At this time, cases where the symptom before administration was “0: none” or “1: mild” were excluded from the analysis target.
# [5] = Day 2 (24 hours later), 12 to <65 years old
# [6] = Day 2 (24 hours later), 20 to <65 years old
# [7] = Day 3 (48 hours later), 12 to <65 years old
# [8] = Day 3 (48 hours later), 20 to <65 years old
# [9] = Day 4 (72 hours later), 12 to <65 years old
# [10] = Day 4 (72 hours later), 20 to <65 years old
# [11] = Day 5 (96 hours later), 12 to <65 years old
# [12] = Day 5 (96 hours later), 20 to <65 years old
# [13] = Day 6 (120 hours later), 12 to <65 years old
# [14] = Day 6 (120 hours later), 20 to <65 years old
# [15] = Day 9 (192 hours later), 12 to <65 years old
# [16] = Day 9 (192 hours later), 20 to <65 years old
compound,measurement,setting,value
COC(=O)OCOc1c2n(ccc1=O)N([C@@H]1c3ccccc3SCc3c1ccc(F)c3F)[C@@H]1COCCN1C2=O [II-6],plasma concentration of Compound II-6,[1],a determination limit or less
same,Time (median) to termination of viral shedding based on virus titer,[2]; 12 to <65 years old,24.0 h
same,"Time to termination of viral shedding, difference between groups vs placebo",[2]; 12 to <65 years old,-72.0 h
same,"Time to termination of viral shedding, difference between groups vs Oseltamivir",[2]; 20 to <65 years old,-48.0 h
same,"Amount of change in virus titer from baseline, mean",[2]; [5],−4.44 log10 [TCID50/mL]
same,Proportion of patients having a positive influenza virus titer,[2]; [5],47.8%
same,"Amount of change in virus titer from baseline, mean",[2]; [6],−4.39 log10 [TCID50/mL]
same,Proportion of patients having a positive influenza virus titer,[2]; [6],47.6%
same,"Amount of change in virus titer from baseline, mean",[2]; [7],−4.82 log10 [TCID50/mL]
same,Proportion of patients having a positive influenza virus titer,[2]; [7],21.5%
same,"Amount of change in virus titer from baseline, mean",[2]; [8],−4.78 log10 [TCID50/mL]
same,Proportion of patients having a positive influenza virus titer,[2]; [8],19.8%
same,"Amount of change in virus titer from baseline, mean",[2]; [9],−4.50 log10 [TCID50/mL]
same,Proportion of patients having a positive influenza virus titer,[2]; [9],16.7%
same,"Amount of change in virus titer from baseline, mean",[2]; [10],−4.46 log10 [TCID50/mL]
same,Proportion of patients having a positive influenza virus titer,[2]; [10],16.1%
same,"Amount of change in virus titer from baseline, mean",[2]; [11],−4.95 log10 [TCID50/mL]
same,Proportion of patients having a positive influenza virus titer,[2]; [11],13.6%
same,"Amount of change in virus titer from baseline, mean",[2]; [12],−4.95 log10 [TCID50/mL]
same,Proportion of patients having a positive influenza virus titer,[2]; [12],13.0%
same,"Amount of change in virus titer from baseline, mean",[2]; [13],−4.58 log10 [TCID50/mL]
same,Proportion of patients having a positive influenza virus titer,[2]; [13],8.2%
same,"Amount of change in virus titer from baseline, mean",[2]; [14],−4.56 log10 [TCID50/mL]
same,Proportion of patients having a positive influenza virus titer,[2]; [14],5.6%
same,"Amount of change in virus titer from baseline, mean",[2]; [15],−5.06 log10 [TCID50/mL]
same,Proportion of patients having a positive influenza virus titer,[2]; [15],2.9%
same,"Amount of change in virus titer from baseline, mean",[2]; [16],−5.03 log10 [TCID50/mL]
same,Proportion of patients having a positive influenza virus titer,[2]; [16],3.0%
same,Incidence of adverse events the causal relationship of which cannot be denied (patients),[3],4.4%
same,"Time until cough symptom is alleviated, difference from placebo",[4]; single oral 10 mg,-0.1 h
same,"Time until cough symptom is alleviated, hazard ratio (Cox model relative to placebo)",[4]; single oral 10 mg,0.941
same,"Time until fatigue symptom is alleviated, difference from placebo",[4]; single oral 10 mg,-10.7 h
same,"Time until fatigue symptom is alleviated, hazard ratio (Cox model relative to placebo)",[4]; single oral 10 mg,0.783
same,"Time until feverishness or chills symptom is alleviated, difference from placebo",[4]; single oral 10 mg,-4.1 h
same,"Time until feverishness or chills symptom is alleviated, hazard ratio (Cox model relative to placebo)",[4]; single oral 10 mg,0.635
same,"Time until headache symptom is alleviated, difference from placebo",[4]; single oral 10 mg,-1.5 h
same,"Time until headache symptom is alleviated, hazard ratio (Cox model relative to placebo)",[4]; single oral 10 mg,0.803
same,"Time until muscular or joint pain symptom is alleviated, difference from placebo",[4]; single oral 10 mg,-10.7 h
same,"Time until muscular or joint pain symptom is alleviated, hazard ratio (Cox model relative to placebo)",[4]; single oral 10 mg,0.77
same,"Time until nasal congestion symptom is alleviated, difference from placebo",[4]; single oral 10 mg,-17.6 h
same,"Time until nasal congestion symptom is alleviated, hazard ratio (Cox model relative to placebo)",[4]; single oral 10 mg,0.742
same,"Time until sore throat symptom is alleviated, difference from placebo",[4]; single oral 10 mg,9.1 h
same,"Time until sore throat symptom is alleviated, hazard ratio (Cox model relative to placebo)",[4]; single oral 10 mg,1.312
same,"Time to alleviation of influenza symptoms, difference from placebo",[4]; single oral 10 mg,-23.4 h
same,"Time to alleviation of influenza symptoms, hazard ratio (Cox proportional hazard model relative to placebo)",[4]; single oral 10 mg,0.758
same,"Time to alleviation of influenza symptoms, median value",[4]; single oral 10 mg,54.2 h
same,"Time until cough symptom is alleviated, median value",[4]; single oral 10 mg,31.1 h
same,"Time until fatigue symptom is alleviated, median value",[4]; single oral 10 mg,32 h
same,"Time until feverishness or chills symptom is alleviated, median value",[4]; single oral 10 mg,24.7 h
same,"Time until headache symptom is alleviated, median value",[4]; single oral 10 mg,42.2 h
same,"Time until muscular or joint pain symptom is alleviated, median value",[4]; single oral 10 mg,31.2 h
same,"Time until nasal congestion symptom is alleviated, median value",[4]; single oral 10 mg,25.2 h
same,"Time until sore throat symptom is alleviated, median value",[4]; single oral 10 mg,35.3 h
same,"Time until cough symptom is alleviated, difference from placebo",[4]; single oral 20 mg,-1.4 h
same,"Time until cough symptom is alleviated, hazard ratio (Cox model relative to placebo)",[4]; single oral 20 mg,0.883
same,"Time until fatigue symptom is alleviated, difference from placebo",[4]; single oral 20 mg,-11.5 h
same,"Time until fatigue symptom is alleviated, hazard ratio (Cox model relative to placebo)",[4]; single oral 20 mg,0.876
same,"Time until feverishness or chills symptom is alleviated, difference from placebo",[4]; single oral 20 mg,0.6 h
same,"Time until feverishness or chills symptom is alleviated, hazard ratio (Cox model relative to placebo)",[4]; single oral 20 mg,0.848
same,"Time until headache symptom is alleviated, difference from placebo",[4]; single oral 20 mg,-6.7 h
same,"Time until headache symptom is alleviated, hazard ratio (Cox model relative to placebo)",[4]; single oral 20 mg,0.936
same,"Time until muscular or joint pain symptom is alleviated, difference from placebo",[4]; single oral 20 mg,-12 h
same,"Time until muscular or joint pain symptom is alleviated, hazard ratio (Cox model relative to placebo)",[4]; single oral 20 mg,0.687
same,"Time until nasal congestion symptom is alleviated, difference from placebo",[4]; single oral 20 mg,-21.3 h
same,"Time until nasal congestion symptom is alleviated, hazard ratio (Cox model relative to placebo)",[4]; single oral 20 mg,0.59
same,"Time until sore throat symptom is alleviated, difference from placebo",[4]; single oral 20 mg,1.5 h
same,"Time until sore throat symptom is alleviated, hazard ratio (Cox model relative to placebo)",[4]; single oral 20 mg,1.05
same,"Time to alleviation of influenza symptoms, difference from placebo",[4]; single oral 20 mg,-26.6 h
same,"Time to alleviation of influenza symptoms, hazard ratio (Cox proportional hazard model relative to placebo)",[4]; single oral 20 mg,0.81
same,"Time to alleviation of influenza symptoms, median value",[4]; single oral 20 mg,51.0 h and 51 h
same,"Time until cough symptom is alleviated, median value",[4]; single oral 20 mg,29.8 h
same,"Time until fatigue symptom is alleviated, median value",[4]; single oral 20 mg,31.3 h
same,"Time until feverishness or chills symptom is alleviated, median value",[4]; single oral 20 mg,29.4 h
same,"Time until headache symptom is alleviated, median value",[4]; single oral 20 mg,37 h
same,"Time until muscular or joint pain symptom is alleviated, median value",[4]; single oral 20 mg,29.9 h
same,"Time until nasal congestion symptom is alleviated, median value",[4]; single oral 20 mg,21.6 h
same,"Time until sore throat symptom is alleviated, median value",[4]; single oral 20 mg,27.8 h
same,"Time until cough symptom is alleviated, difference from placebo",[4]; single oral 40 mg,-6.6 h
same,"Time until cough symptom is alleviated, hazard ratio (Cox model relative to placebo)",[4]; single oral 40 mg,0.865
same,"Time until fatigue symptom is alleviated, difference from placebo",[4]; single oral 40 mg,-11.7 h
same,"Time until fatigue symptom is alleviated, hazard ratio (Cox model relative to placebo)",[4]; single oral 40 mg,0.724
same,"Time until feverishness or chills symptom is alleviated, difference from placebo",[4]; single oral 40 mg,-5.8 h
same,"Time until feverishness or chills symptom is alleviated, hazard ratio (Cox model relative to placebo)",[4]; single oral 40 mg,0.71
same,"Time until headache symptom is alleviated, difference from placebo",[4]; single oral 40 mg,-5.8 h
same,"Time until headache symptom is alleviated, hazard ratio (Cox model relative to placebo)",[4]; single oral 40 mg,0.655
same,"Time until muscular or joint pain symptom is alleviated, hazard ratio (Cox model relative to placebo)",[4]; single oral 40 mg,0.657
same,"Time until nasal congestion symptom is alleviated, hazard ratio (Cox model relative to placebo)",[4]; single oral 40 mg,0.564
same,"Time until sore throat symptom is alleviated, difference from placebo",[4]; single oral 40 mg,5.6 h
same,"Time until sore throat symptom is alleviated, hazard ratio (Cox model relative to placebo)",[4]; single oral 40 mg,1.092
same,"Time to alleviation of influenza symptoms, difference from placebo",[4]; single oral 40 mg,-28.2 h
same,"Time to alleviation of influenza symptoms, hazard ratio (Cox proportional hazard model relative to placebo)",[4]; single oral 40 mg,0.817
same,"Time to alleviation of influenza symptoms, median value",[4]; single oral 40 mg,49.5 h
same,"Time until cough symptom is alleviated, median value",[4]; single oral 40 mg,24.6 h
same,"Time until fatigue symptom is alleviated, median value",[4]; single oral 40 mg,31.1 h
same,"Time until feverishness or chills symptom is alleviated, median value",[4]; single oral 40 mg,23 h
same,"Time until headache symptom is alleviated, median value",[4]; single oral 40 mg,37.9 h
same,"Time until muscular or joint pain symptom is alleviated, median value",[4]; single oral 40 mg,25.4 h
same,"Time until nasal congestion symptom is alleviated, median value",[4]; single oral 40 mg,21.9 h
same,"Time until sore throat symptom is alleviated, median value",[4]; single oral 40 mg,31.9 h
